This is an account of results in patent US20040029208A1, “Assay method and kit for testing biological material for exposure to stress using biomarkers” (priority 2000, published 2004).

Holding throughout (type): in vivo
Assay [1] deals with Anagallis arvensis. The assay can be described thus: TLC plant biomarker pattern after herbicide spraying (greenhouse). The method, then: (§1) The experiments were performed in the green-house at the National Environmental Research Institute, Silkeborg, Denmark. All the seeds needed light to germinate, and were sown at the soil surface in individual 11 cm pots. The soil used during the experiments contained: (SM Growing Mould (Growing medium by special soil (sphagnum) added clay granulate), 0-30 mm; grade of turnover 55-75; added per m^3: 3 kg lime (white chalk), 1.5 kg dolit chalk, 40 kg clay granulate; Fertilizer added granulate: NO3-N: 55.0 g; NH4-N: 65.0 g; P: 106.6 g; K: 224.0 g; Mg: 22 g; Micro nutrients added in chelate form, Mo in uorganic form: B-Boron: 1 g; Cu-copper: 6 g; Mn-Manganese: 3 g; Zinc-Zn: 3 g: Fe-iron: 6 g; Mo- molybdenum: 1.4 g).
(§2) During the experiments plants were watered from below, and the temperature in the green-house was maintained between 15° C. and 25° C. with variations due to external weather, and the photoperiod was 16th daylight. The green-house is divided into different units, which allowed for the separate maintenance of the control plants from the sprayed plants to avoid undesirable effects due to vapour drift.
(§3) Glyphosate (Roundup Bio (360 g L^−1) was supplied by Monsanto Denmark A/S. Recommended field dose=1,44 kg a.i. ha^−1. In all the experiments, an automatic sprayer (designed in Denmark by Jens Kristensen 1994) was used where the herbicide application is achieved by moving boom equipment with two ordinary hydraulic flat fan nozzles (Hardi 4110-16). Two pots per spray event were placed in the middle of the spray chamber at 50 cm distance from the nozzle, delivering 200 L of water per-hectare with a desired herbicide concentration (working pressure 2 bars; speed of spray boom=4.7 km h^−1). The spraying was performed starting with the lowest concentration first, progressing towards the highest concentration. Between each herbicide, the sprayer was thoroughly rinsed several times with water. The control plants were sprayed with water.
(§4) The fresh plant material was pressed using a hand press. The extract was immediately centrifuged. (3000 rpm) for 10 minutes. The supernatant was used for analysis. The extracts were kept cool or right above 0° C. during the test to avoid decomposition of biomarkers.
(§5) Freeze-dried plant material was crushed and 250 mg was extracted with 5.00 ml 75% ethanol in an ultrasonic bath for 2 hours. The temperature was kept <0° C. (using ice) during the extraction to avoid decomposition of biomarkers. The extract was centrifuged (3000 rpm) for 10 minutes. The supematant was used for analysis and were kept cool during the test to avoid decomposition of biomarkers.
(§6) The two extracts (freshtfresh ethanol) were applicated immediately on a TLC plate (10 μl on both TLC-Plate types (see below) using cool air-drying. The 75% ethanolic extract was applicated 10 μl on Silica-gel TLC-plates and 5 μl on Cellulose TLC-plates (see below). The fresh/fresh ethanolic extractsare recommended to perform if fresh plant material are to be analysed (field-test). The freeze-dried or frozen plant material extraction Is recommended if the analysis are performed in the laboratory.
[…] Derivatisation: Stock solution 1:50% sulfuric acid in 96% ethanol; Stock solution 2: 2% vanillin in absolut alcohol; Derivatisation-solvent, Fresh produced before us, stock solution 1 and stock solution 2 (1:10); Aftercare: 120° C. in 2-3 min. The plate is valuated visually. The system detects higher alcoholics, phenolic compounds, steroids and etheric oils (Stahl 1969), terpenoids, phenyl propanolds, phenolic compounds (Wagner etea. 1984)
TLC-System 7: HPTLC-Alufolie Silica Gel 60 F2u, Merck 1.05548 (10×10 cm); 10 μl plant extracts plants exposed to glyphosate and control plants; eluted in n-butanol: acetic acid: water (4:1:5) (upper phase after 5 minutes shaking). Derivatisation: 0,5 g p-anisaldehyde diluted in 10 ml conc. acetic acid and 85 ml absolute alcohol is and 5 ml conc. sulfuric acid (added in the following row). The plate is heated to. […]

For assay [2], the system named is Centauréa cýanus. The assay is described as above.
Assay [3] relates to Lólium perénne. Described as above. Particulars: TLC 1 (non-specific compounds). The method, then: as §1, §2, §3, §4, §5, §6
(§7) TLC-System 1: HPTLC-Alufolie Silica Gel 60 F254, Merck 1.05548 (10×10 cm); 10 μl plant extracts plants exposed to glyphosate and control plants; eluted in n-butanol acetic acid: water (4:1:5) (upper phase after 5 minutes shaking). Derivatisation: Stock solution 1:50% sulfuric acid in 96% ethanol; Stock solution 2: 2% vanillin in absolut alcohol; Derivatisation-solvent, Fresh produced before us, stock solution 1 and stock solution 2 (1:10); Aftercare: 120° C. in 2-3 min. The plate is valuated visually. The system detects higher alcoholics, phenolic compounds, steroids and etheric oils (Stahl 1969), terpenoids, phenyl propanolds, phenolic compounds (Wagner etea. 1984) […]

Assay [4] deals with Lólium perénne. Described as above.
In assay [5] the test system is Plantágo lanceoláta. Described as above. The method, then: as §1, §2, §3, §4, §5, §6, §7
The subject of assay [6] is Anagallis arvensis. Kind of assay: Visual effect rating (0-9) after herbicide spraying. Particulars: at presence of TLC 7 biomarker. The text has this: (§8) Four, eight, sixteen and thirty two days after spraying, visual effects on plants were noted before harvest, using the rating chart described in Hamil. et al. (1977) and Boutin et al. (1993); a rating of zero indicates full growth and vigour, and a rating of nine indicates no growth/mortality.
(§9) The min. visual effect (VE) of the presence of plant biomarkers is rated as described by Hamil et al., (1977) and Boutin et al. (1993).

The test system of assay [7] is Centauréa cýanus. The assay is described as above.
Excerpt: as §8, §9

In assay [8] the test system is Lólium perénne. The description is as above.
Excerpt: as §8, §9

Assay [9] has as its system Plantágo lanceoláta. The description is as above.
Excerpt: as §8, §9

[10] abbreviates: at presence of TLC 4d biomarker.

With Bromoxynil, the “Min. of label dose of herbicide with effect” value is listed as 1% with Anagallis arvensis [1] (TLC 6 (lipids and terpens)); 1% in the assay with Anagallis arvensis [1] (TLC 7 (non-specific compounds)); 10% in the assay on Centauréa cýanus [2] (TLC 2 (phenolic compounds)); 1% with Centauréa cýanus [2] (TLC 7 (non-specific compounds)); 1% in the assay with Lólium perénne [3]; 10% in the assay on Lólium perénne [4] (TLC 6 (lipids and terpens)).

For the compound `COC(=O)c1ccccc1S(=O)(=O)NC(=O)Nc1nc(C)nc(OC)n1` [Metsulfuron methyl], the “Min. of label dose of herbicide with effect” value was found to be 1% in the assay with Anagallis arvensis [1] (TLC 7 (non-specific compounds)); 1% with Centauréa cýanus [2] (TLC 2 (phenolic compounds)); 1% in the assay on Centauréa cýanus [2] (TLC 6 (lipids and terpens)); 1% with Centauréa cýanus [2] (TLC 7 (non-specific compounds)); 1% with Centauréa cýanus [2] (TLC 4d (amino acids)); 1% with Plantágo lanceoláta [5] (TLC 1 (non-specific compounds)). The “Min. of label dose of herbicide with effect” value is 1% in the assay on Plantágo lanceoláta [5] (TLC 2 (phenolic compounds)); 10% in the assay on Plantágo lanceoláta [5] (TLC 6 (lipids and terpens)); 10% in the assay with Plantágo lanceoláta [5] (TLC 7 (non-specific compounds)); 1% in the assay with Plantágo lanceoláta [5] (TLC 4d (amino acids)); 10% with Lólium perénne [4] (TLC 6 (lipids and terpens)); 10% in the assay on Lólium perénne [4] (TLC 7 (non-specific compounds)). In addition, the Min. visual effect in the assay on Anagallis arvensis [6] is given as 1; in the assay on Centauréa cýanus [7] (at presence of TLC 6 biomarker) it was 0; with Centauréa cýanus [7] (at presence of TLC 7 biomarker), 0; with Lólium perénne [8] (at presence of TLC 1 biomarker), 0; with Lólium perénne [8] (at presence of TLC 6 biomarker) it was 0; in the assay on Lólium perénne [8] (at presence of TLC 7 biomarker), 0. In addition, the Min. visual effect came to 0 in the assay on Lólium perénne [8] (setting [10]); 0 with Plantágo lanceoláta [9] (at presence of TLC 1 biomarker); 0 with Plantágo lanceoláta [9] (at presence of TLC 2 biomarker); 2 in the assay on Plantágo lanceoláta [9] (at presence of TLC 6 biomarker); 3 in the assay on Plantágo lanceoláta [9] (at presence of TLC 7 biomarker).

Turning to `CCC(CC)Nc1c([N+](=O)[O-])cc(C)c(C)c1[N+](=O)[O-]` [Pendimethalin], the “Min. of label dose of herbicide with effect” value in the assay with Anagallis arvensis [1] (TLC 1 (non-specific compounds)) came to 10%; in the assay with Anagallis arvensis [1] (TLC 7 (non-specific compounds)), 10%; in the assay with Anagallis arvensis [1] (TLC 4d (amino acids)), 1%; in the assay with Centauréa cýanus [2] (TLC 2 (phenolic compounds)), 1%; in the assay on Centauréa cýanus [2] (TLC 4d (amino acids)), 1%; in the assay with Plantágo lanceoláta [5] (TLC 2 (phenolic compounds)), 1%. For the same compound, the “Min. of label dose of herbicide with effect” value in the assay on Plantágo lanceoláta [5] (TLC 6 (lipids and terpens)) was 1%; in the assay with Plantágo lanceoláta [5] (TLC 4d (amino acids)), 1%; in the assay with Lólium perénne [4] (TLC 7 (non-specific compounds)), 1%; with Lólium perénne [4] (TLC 4d (amino acids)), 1%. Moreover, the Min. visual effect in the assay with Anagallis arvensis [6] turned out to be 3; in the assay with Centauréa cýanus [7] (at presence of TLC 2 biomarker), 0; in the assay with Centauréa cýanus [7] (setting [10]), 0; with Lólium perénne [8] (at presence of TLC 7 biomarker), 0; in the assay on Lólium perénne [8] (setting [10]), 0; in the assay with Plantágo lanceoláta [9] (at presence of TLC 2 biomarker) it was 0. The Min. visual effect in the assay on Plantágo lanceoláta [9] (at presence of TLC 6 biomarker) and with Plantágo lanceoláta [9] (setting [10]) was 0 in each case. In addition, the “Days after exposure (biomarker present)” value in the assay on Lólium perénne [4] (TLC 7 (non-specific compounds)) is listed as 8, 16 days; in the assay on Lólium perénne [4] (TLC 4d (amino acids)), 4, 8, 16, 32 days.
